Source: PubChem BioAssay (NCI)
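In this assay, cells in 96-well plates receive the compound at five concentrations for 48 hours. Endpoints are linearly interpolated between the surrounding concentrations. At the GI50, growth is halved. TGI: total growth inhibition.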

Columns and labels:
Test in all cases: NCI tumour cell line growth inhibition, 48 h
KM12 colon = tested on: KM12 colon
SF-539 CNS = tested on: SF-539 CNS
BT-549 breast = tested on: BT-549 breast
HT29 colon = tested on: HT29 colon
MCF7 breast = tested on: MCF7 breast
SK-MEL-5 melanoma = tested on: SK-MEL-5 melanoma
786-0 renal = tested on: 786-0 renal
PC-3 prostate = tested on: PC-3 prostate
OVCAR-4 ovarian = tested on: OVCAR-4 ovarian
HS 578T breast = tested on: HS 578T breast
U251 CNS = tested on: U251 CNS
HCT-15 colon = tested on: HCT-15 colon
SF-295 CNS = tested on: SF-295 CNS
SK-OV-3 ovarian = tested on: SK-OV-3 ovarian
LOX IMVI melanoma = tested on: LOX IMVI melanoma
OVCAR-3 ovarian = tested on: OVCAR-3 ovarian
CCRF-CEM leukemia = tested on: CCRF-CEM leukemia
A498 renal = tested on: A498 renal
NCI-H23 lung = tested on: NCI-H23 lung
NCI/ADR-RES ovarian = tested on: NCI/ADR-RES ovarian
MDA-MB-231 breast = tested on: MDA-MB-231 breast
SR leukemia = tested on: SR leukemia
TK-10 renal = tested on: TK-10 renal
UACC-62 melanoma = tested on: UACC-62 melanoma
HOP-62 NSCLC = tested on: HOP-62 NSCLC
K-562 leukemia = tested on: K-562 leukemia
RXF 393 renal = tested on: RXF 393 renal
COLO 205 colon = tested on: COLO 205 colon
UO-31 renal = tested on: UO-31 renal

`COc1ccc(-c2nc3ccc(-c4nnc(SCc5ccccc5)o4)cc3[nH]2)cc1OC` showed a TGI (KM12 colon) of over 100 µM, a GI50 (SF-539 CNS) of 6.54 µM and a TGI (SF-539 CNS) of over 100 µM. For the same compound, the GI50 (BT-549 breast) was 21.3 µM, the TGI (BT-549 breast) was over 100 µM and the GI50 (HT29 colon) was 16.2 µM. It also gave a TGI (HT29 colon) of over 100 µM, a GI50 (MCF7 breast) of 13.8 µM and a TGI (MCF7 breast) of over 100 µM. It also gave a GI50 (SK-MEL-5 melanoma) of 7.88 µM, a TGI (SK-MEL-5 melanoma) of over 100 µM and a GI50 (786-0 renal) of 5.88 µM. The TGI (786-0 renal) was 40.2 µM, the GI50 (PC-3 prostate) was 19.8 µM and the TGI (PC-3 prostate) was over 100 µM. It also gave a GI50 (OVCAR-4 ovarian) of 3.08 µM, a TGI (OVCAR-4 ovarian) of 12.3 µM and a GI50 (HS 578T breast) of 3.5 µM. For the same compound, the TGI (HS 578T breast) was over 100 µM, the GI50 (U251 CNS) was 4.72 µM and the TGI (U251 CNS) was 20.4 µM. The GI50 (HCT-15 colon) was 13.8 µM, the TGI (HCT-15 colon) was over 100 µM and the GI50 (SF-295 CNS) was 5.54 µM. The TGI (SF-295 CNS) was over 100 µM, the GI50 (SK-OV-3 ovarian) was over 100 µM and the TGI (SK-OV-3 ovarian) was over 100 µM. The GI50 (LOX IMVI melanoma) was 4.74 µM, the TGI (LOX IMVI melanoma) was over 100 µM and the GI50 (OVCAR-3 ovarian) was 4.73 µM. For the same compound, the TGI (OVCAR-3 ovarian) was 88.9 µM, the GI50 (CCRF-CEM leukemia) was 16.7 µM and the TGI (CCRF-CEM leukemia) was over 100 µM. For the same compound, the GI50 (A498 renal) was over 100 µM, the TGI (A498 renal) was over 100 µM and the GI50 (NCI-H23 lung) was 11 µM. It also gave a TGI (NCI-H23 lung) of 79.9 µM, a GI50 (NCI/ADR-RES ovarian) of 11.1 µM and a TGI (NCI/ADR-RES ovarian) of over 100 µM. It also gave a GI50 (MDA-MB-231 breast) of 4.28 µM, a TGI (MDA-MB-231 breast) of 23.2 µM and a GI50 (SR leukemia) of 6.45 µM. The TGI (SR leukemia) was over 100 µM, the GI50 (TK-10 renal) was 8.62 µM and the TGI (TK-10 renal) was 46.7 µM. It also gave a GI50 (UACC-62 melanoma) of 7.2 µM, a TGI (UACC-62 melanoma) of 43.8 µM and a GI50 (HOP-62 NSCLC) of 3.88 µM. It also gave a TGI (HOP-62 NSCLC) of 23.2 µM, a GI50 (K-562 leukemia) of 28.3 µM and a TGI (K-562 leukemia) of over 100 µM. For the same compound, the GI50 (RXF 393 renal) was 3.6 µM, the TGI (RXF 393 renal) was over 100 µM and the GI50 (COLO 205 colon) was 38 µM. For the same compound, the TGI (COLO 205 colon) was over 100 µM, the GI50 (UO-31 renal) was 57.4 µM and the TGI (UO-31 renal) was over 100 µM.
